According to patent publication US20250163047A1, “HETEROCYCLIC COMPOUNDS, COMPOSITIONS THEREOF, AND METHODS OF TREATMENT THEREWITH” (BeiGene, Ltd., priority 2022, published 2025):
Read-outs that look alike come from different tables or passages of the source.

Tests used:
Cbl-b (aa36-427) = target: T1, Cbl-b (aa36-427) (Homo sapiens, UniProt Q13191); test: Co-expressed Cbl-b with BirA biochemical assay (CBLB/E2-Ub binding, HTRF)
T1 construct: Cbl-b (aa36-427, in-house); made in house
Source text: (§1) The assay in the absence of a Cbl-b/Cbl inhibitor, where phosphorylation of Cbl-b/Cbl by the Src kinase allows UbcH5B-Ub to bind to Cbl-b/Cbl and brings the Bodipy-Fluorescein tagged ubiquitin in proximity to the streptavidin-terbium bound to the N-terminal biotinylated Avi-tagged Cbl-b/Cbl. […] The lack of a FRET signal indicates Cbl-b/Cbl is inhibited by the Cbl-b/Cbl inhibitor.

Cbl (aa49-434) = target: T2, Cbl (aa49-434) (Homo sapiens, UniProt P22681); test: Co-expressed Cbl with BirA biochemical assay (CBL/E2-Ub binding, HTRF); settings: 0.6 nM Cbl co-expressed with BirA, read-out: co-express CBL/E2-Ub-binding assay IC50
T2 construct: Cbl (aa49-434, in-house); made in house
T2 sequence (P22681 49-434): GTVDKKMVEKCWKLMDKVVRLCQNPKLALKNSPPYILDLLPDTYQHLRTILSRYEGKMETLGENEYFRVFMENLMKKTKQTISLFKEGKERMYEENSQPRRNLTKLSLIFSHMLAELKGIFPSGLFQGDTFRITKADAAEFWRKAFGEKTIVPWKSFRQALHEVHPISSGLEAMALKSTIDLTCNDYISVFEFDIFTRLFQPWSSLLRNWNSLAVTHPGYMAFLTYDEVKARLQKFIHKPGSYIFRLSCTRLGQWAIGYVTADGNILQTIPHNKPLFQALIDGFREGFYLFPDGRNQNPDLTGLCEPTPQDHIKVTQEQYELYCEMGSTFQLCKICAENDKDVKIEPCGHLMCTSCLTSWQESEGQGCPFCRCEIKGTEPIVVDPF
Source text: as §1

[1] = 0.6 nM Cbl-b co-expressed with BirA, HTRF, read-out: co-express CBLB/E2-Ub-binding assay IC50

T1 sequence (Q13191 36-427): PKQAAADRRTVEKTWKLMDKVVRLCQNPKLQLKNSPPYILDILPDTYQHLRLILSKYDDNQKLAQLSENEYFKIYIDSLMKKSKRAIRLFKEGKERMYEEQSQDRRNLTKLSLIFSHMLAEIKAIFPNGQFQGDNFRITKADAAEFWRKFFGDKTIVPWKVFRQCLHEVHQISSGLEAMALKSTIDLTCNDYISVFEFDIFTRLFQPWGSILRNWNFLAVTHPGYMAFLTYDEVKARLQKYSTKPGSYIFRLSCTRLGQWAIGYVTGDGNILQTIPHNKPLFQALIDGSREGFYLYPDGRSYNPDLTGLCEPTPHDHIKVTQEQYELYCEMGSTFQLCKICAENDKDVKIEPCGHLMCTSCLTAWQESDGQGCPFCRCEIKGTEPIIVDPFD

| IC50 (Cbl-b (aa36-427); [1]) [nM] | IC50 (Cbl (aa49-434)) [nM] | SMILES | IC50 (Cbl-b (aa36-427)) [nM] |
| --- | --- | --- | --- |
| 1.2 | 1.1 | C[C@H](NCc1cc(C(=O)Nc2cccc([C@]3(c4nncn4C)C[C@@H](CC#N)C3)c2)nc2cc[nH]c12)C1CCCC1 [Compound B25, N-(3-((1s,3R)-3-(cyanomethyl)-1-(4-methyl-4H-1,2,4-triazol-3-yl)cyclobutyl)phenyl)-7-((((S)-1-cyclopentylethyl)amino)methyl)-1H-pyrrolo[3,2-b]pyridine-5-carboxamide] |  |
| 2.7 | 6 | C[C@H]1CCCN(Cc2cc(C(=O)Nc3cccc([C@]4(c5nncn5C)C[C@@H](CC#N)C4)c3)nc3c2NCC32CC2)C1 [Compound C19, N-(3-((1s,3R)-3-(cyanomethyl)-1-(4-methyl-4H-1,2,4-triazol-3yl)cyclobutyl)phenyl)-7′-(((S)-3-methylpiperidin-1-yl)methyl)-1′,2′-dihydrospiro[cyclopropane-1,3′-pyrrolo[3,2-b]pyridine]-5′-carboxamide] |  |
| 1.4 | 7 | Cc1cnc2c(C(=O)Nc3cccc([C@]4(c5nncn5C)C[C@@H](CC#N)C4)c3)cc(CN3CC[C@H](F)[C@H](C)C3)cn12 [Compound A47, N-(3-((1s,3S)-3-(cyanomethyl)-1-(4-methyl-4H-1,2,4-triazol-3-yl)cyclobutyl)phenyl)-6-(((3R,4S)-4-fluoro-3-methylpiperidin-1-yl)methyl)-3-methylimidazo[1,2-a]pyridine-8-carboxamide] |  |
| 0.8 | 2.3 | Cn1cnnc1[C@]1(c2cccc(NC(=O)c3cc(CNCC4CCC4)c4ccsc4n3)c2)C[C@H](C)C1 [Compound B41, 4-{[(cyclobutylmethyl)amino]methyl}-N-{3-[(1r, 3s)-3-methyl-1-(4-methyl-1,2,4-triazol-3-yl)cyclobutyl]phenyl}thieno[2,3-b]pyridine-6-carboxamide] |  |
| 1.2 | 3.5 | Cn1cnnc1[C@]1(c2cccc(NC(=O)c3cc(CNC4(C)CC4)cn4c(F)cnc34)c2)C[C@H](C)C1 [Compound A45, 3-fluoro-N-(3-((1s, 3s)-3-methyl-1-(4-methyl-4H-1,2,4-triazol-3-yl)cyclobutyl)phenyl)-6-(((1-methylcyclopropyl)amino)methyl)imidazo[1,2-a]pyridine-8-carboxamide] |  |
| 1.3 | 5.1 | C[C@H](NCc1cc(C(=O)Nc2cccc([C@]3(c4nncn4C)C[C@@H](C)C3)c2)nc2c1OCC2(C)C)C1CCCC1 [Compound C34, 7-((((S)-1-cyclopentylethyl)amino)methyl)-3,3-dimethyl-N-(3-((1s,3R)-3-methyl-1-(4-methyl-4H-1,2,4-triazol-3-yl)cyclobutyl)phenyl)-2,3-dihydrofuro[3,2-b]pyridine-5-carboxamide] |  |
| 0.9 | 17 | Cn1cnnc1[C@]1(c2cccc(NC(=O)c3cc(CNC4(C)CC4)c4[nH]cc(Cl)c4n3)c2)C[C@H](CC#N)C1 [Compound B24, 3-chloro-N-(3-((1s, 3s)-3-(cyanomethyl)-1-(4-methyl-4H-1,2,4-triazol-3-yl)cyclobutyl)phenyl)-7-(((1-methylcyclopropyl)amino)methyl)-1H-pyrrolo[3,2-b]pyridine-5-carboxamide] |  |
| 0.5 | 2.6 | Cn1cnnc1[C@]1(c2cccc(NC(=O)c3cc(CNCC4CCC4)c4c(n3)C(F)(F)CC4)c2)C[C@H](C)C1 [Compound C56, 4-(((cyclobutylmethyl)amino)methyl)-7,7-difluoro-N-(3-((1s, 3s)-3-methyl-1-(4-methyl-4H-1,2,4-triazol-3-yl)cyclobutyl)phenyl)-6,7-dihydro-5H-cyclopenta[b]pyridine-2-carboxamide] |  |
| 0.9 | 2 | C[C@H](NCc1cc(C(=O)Nc2cccc([C@]3(c4nncn4C)C[C@@H](C)C3)c2)c2ncc(F)n2c1)C1CCC1 [Compound A65, 6-((((S)-1-cyclobutylethyl)amino)methyl)-3-fluoro-N-(3-((1s,3R)-3-methyl-1-(4-methyl-4H-1,2,4-triazol-3-yl)cyclobutyl)phenyl)imidazo[1,2-a]pyridine-8-carboxamide] |  |
| 1.1 | 9.2 | C[C@H]1CCCN(Cc2cc(C(=O)Nc3cccc([C@]4(c5nncn5C)C[C@@H](CC#N)C4)c3)nc3c2NCC3(C)C)C1 [Compound C13, 3,3-dimethyl-7-{[(3S)-3-methylpiperidin-1-yl]methyl}-N-{3-[(1s, 3s)-3-(cyanomethyl)-1-(4-methyl-1,2,4-triazol-3-yl)cyclobutyl]phenyl}-1H,2H-pyrrolo[3,2-b]pyridine-5-carboxamide] |  |
| 2.2 | 26 | Cc1cnc2c(C(=O)Nc3cncc([C@]4(c5nncn5C)C[C@@H](C)C4)c3)cc(CN[C@@H](C)C3CC3)cn12 [Compound A64, 6-((((S)-1-cyclopropylethyl)amino)methyl)-3-methyl-N-(5-((1s,3R)-3-methyl-1-(4-methyl-4H-1,2,4-triazol-3-yl)cyclobutyl)pyridin-3-yl)imidazo[1,2-a]pyridine-8-carboxamide] |  |
| 1.2 | 2.3 | CC(C)CNCc1cc(C(=O)Nc2cccc([C@]3(c4nncn4C)C[C@@H](CC#N)C3)c2)nc2cc[nH]c12 [Compound B29, N-(3-((1s, 3s)-3-(cyanomethyl)-1-(4-methyl-4H-1,2,4-triazol-3-yl)cyclobutyl)phenyl)-7-((isobutylamino)methyl)-1H-pyrrolo[3,2-b]pyridine-5-carboxamide] |  |
| 1.1 | 4.9 | Cn1cnnc1[C@]1(c2cccc(NC(=O)c3cc(CNCC(C)(C)C)cn4ccnc34)c2)C[C@H](CC#N)C1 [Compound A32, N-(3-((1s, 3s)-3-(cyanomethyl)-1-(4-methyl-4H-1,2,4-triazol-3-yl)cyclobutyl)phenyl)-6-((neopentylamino)methyl)imidazo[1,2-a]pyridine-8-carboxamide] |  |
| 3 | 11.9 | CC[C@H](C)NCc1cc(C(=O)Nc2cncc([C@]3(c4nncn4C)C[C@@H](C)C3)c2)c2nccn2c1 [Compound A49, 6-((((S)-sec-butyl)amino)methyl)-N-(5-((1s,3R)-3-methyl-1-(4-methyl-4H-1,2,4-triazol-3-yl)cyclobutyl)pyridin-3-yl)imidazo[1,2-a]pyridine-8-carboxamide] |  |
| 0.7 | 1.1 | C[C@H](NCc1cc(C(=O)Nc2cccc([C@]3(c4nncn4C)C[C@@H](C)C3)c2)nc2cc[nH]c12)C1CCC1 [Compound B35, 7-((((S)-1-cyclobutylethyl)amino)methyl)-N-(3-((1s,3R)-3-methyl-1-(4-methyl-4H-1,2,4-triazol-3-yl)cyclobutyl)phenyl)-1H-pyrrolo[3,2-b]pyridine-5-carboxamide] |  |
| 0.7 | 2.7 | Cn1cnnc1[C@]1(c2cncc(NC(=O)c3cc(CNCC4CCC4)c4[nH]cc(F)c4n3)c2)C[C@H](C)C1 [Compound B46, 7-{[(cyclobutylmethyl)amino]methyl}-3-fluoro-N-{5-[(1r, 3s)-3-methyl-1-(4-methyl-1,2,4-triazol-3-yl)cyclobutyl]pyridin-3-yl}-1H-pyrrolo[3,2-b]pyridine-5-carboxamide] |  |
| 1.7 | 8.2 | C[C@H](NCc1cc(C(=O)Nc2cccc([C@]3(c4nncn4C)C[C@@H](C)C3)c2)c2ncc(F)n2c1)C1CC1 [Compound A19, 6-((((S)-1-cyclopropylethyl)amino)methyl)-3-fluoro-N-(3-((1s,3R)-3-methyl-1-(4-methyl-4H-1,2,4-triazol-3-yl)cyclobutyl)phenyl)imidazo[1,2-a]pyridine-8-carboxamide] |  |
| 0.8 | 2.2 | C[C@H](NCc1cc(C(=O)Nc2cccc([C@]3(c4nncn4C)C[C@@H](CC#N)C3)c2)nc2cc[nH]c12)C1CC1 [Compound B28, N-(3-((1s,3R)-3-(cyanomethyl)-1-(4-methyl-4H-1,2,4-triazol-3-yl)cyclobutyl)phenyl)-7-((((S)-1-cyclopropylethyl)amino)methyl)-1H-pyrrolo[3,2-b]pyridine-5-carboxamide] |  |
| 11.4 | 46.7 | Cn1cnnc1[C@]1(c2cccc(NC(=O)c3cc(CNCC4CCCC4)c4c(n3)C(C)(C)CO4)c2)C[C@H](C)C1 [Compound C33, 7-(((cyclopentylmethyl)amino)methyl)-3,3-dimethyl-N-(3-((1s, 3s)-3-methyl-1-(4-methyl-4H-1,2,4-triazol-3-yl)cyclobutyl)phenyl)-2,3-dihydrofuro[3,2-b]pyridine-5-carboxamide] |  |

| SMILES | IC50 (Cbl-b (aa36-427); [1]) [nM] | IC50 (Cbl (aa49-434)) [nM] | IC50 (Cbl-b (aa36-427)) [nM] |
| --- | --- | --- | --- |
| CC(C)CNCc1cc(C(=O)Nc2cncc([C@]3(c4nncn4C)C[C@@H](C)C3)c2)nc2c(Cl)c[nH]c12 [Compound B55, 3-chloro-7-((isobutylamino)methyl)-N-(5-((1s, 3s)-3-methyl-1-(4-methyl-4H-1,2,4-triazol-3-yl)cyclobutyl)pyridin-3-yl)-1H-pyrrolo[3,2-b]pyridine-5-carboxamide] |  | 14 | 1.6 |
